{
  "source": "patent US8088941B2",
  "about": "“Glycogen synthase kinase-3 inhibitors” (Tel Aviv University Future Technology Development L.P., priority 2001, dated 2012)",
  "key": {"[1]": {"target": "T1, recombinant rabbit GSK-3β (Oryctolagus cuniculus, UniProt G1T8E2)", "T1 sequence (G1T8E2 1-432)": "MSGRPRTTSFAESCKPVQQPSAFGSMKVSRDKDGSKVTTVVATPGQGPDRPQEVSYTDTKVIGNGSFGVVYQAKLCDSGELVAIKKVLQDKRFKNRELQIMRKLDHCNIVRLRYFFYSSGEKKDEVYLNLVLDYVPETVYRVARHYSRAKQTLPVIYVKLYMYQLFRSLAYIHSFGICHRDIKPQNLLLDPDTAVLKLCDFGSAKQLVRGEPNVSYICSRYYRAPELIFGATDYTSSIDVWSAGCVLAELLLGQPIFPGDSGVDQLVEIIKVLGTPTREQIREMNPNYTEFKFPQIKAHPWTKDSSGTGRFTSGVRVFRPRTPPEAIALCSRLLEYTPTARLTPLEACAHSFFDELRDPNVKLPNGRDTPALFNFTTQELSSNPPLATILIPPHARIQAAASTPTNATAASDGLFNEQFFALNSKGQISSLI", "assay": "In vitro GSK-3 inhibition assay with PGS-1 peptide substrate", "type": "biochemical", "conditions": "for GSK-3 inhibition activity: preliminary inhibition assay, FIG. 5", "protocol": "(§1) In vitro inhibition assays: Purified recombinant rabbit GSK-3β (Eldar-Finkelman et al., 1996) was incubated with peptide substrate PGS-1 ([…](p)EDEEE) (SEQ ID NO:1) or peptide substrate p9CREB (SEQ ID NO:2) and with phenyl phosphate, pyridoxal phosphate (P-5-P), GSC-1, GSC-2, GSC-3, GSC-4, GSC-5, GSC-6, GSC-7 or GSC-21 (structural formulas are depicted in FIG. 3), at indicated concentrations. The reaction mixture included Tris 50 mM (pH=7.3), 10 mM MgAc, ^32P[γ-ATP] (100 μM), 0.01% β-mercaptoethanol, and was incubated for 10 minutes at 30° C. Reactions were spotted on phosphocellulose paper (p81), washed with 100 mM phosphoric acid, and counted for radioactivity (as described in Eldar-Finkelman et al., 1996).\nIn vitro inhibition assays: In a preliminary inhibition assay, the GSK-3 inhibition activity of the known compounds phenyl phosphate, pyridoxal phosphate, GSC-1, GSC-2 and GSC-3 was tested as described hereinabove.\nIn an additional inhibition assay, the GSK-3 inhibition activity of GSC-1, GSC-2, GSC-3, GSC-4, and GSC-21 was tested. The ability of GSK-3 to phosphorylate PGS-1 peptide substrate was measured in the presence of indicated concentrations of these compounds. The results, presented in FIG. 6, represent the percentage of GSK-3 activity as compared with a control incubation without inhibitors and are mean of 2 independent experiments±SEM, where each point was assayed in triplicate."}, "[2]": {"tested_on": "Mice adipocytes", "assay": "Glucose uptake in isolated adipocytes", "type": "cell-based", "conditions": "mouse primary adipocytes, 2.5 hours", "protocol": "Glucose uptake in isolated adipocytes: Mice adipocytes were isolated from epididymal fat pad by digestion with 0.8 mg/ml collagenase (Worthington Biochemical) as described previously (Lawrence et al., 1977). Digested fat pads were passed through nylon mesh and cells were washed 3 times with Krebs-bicarbonate buffer (pH=7.4) containing 1% bovine serum albumin (Fraction V, Boehringer Mannheim, Germany), 10 mM HEPES (pH=7.3), 5 mM glucose and 200 nM adenosine. Cells were incubated with GSC-4 and GSC-21 at indicated concentrations for 2.5 hours, followed by addition of 2-deoxy [^3H] glucose (0.5 μci/vial) for 10 minutes. The assay was terminated by centrifugation of cells through dinonylphthalate (ICN, USA). ^3H was thereafter quantitated by liquid scintillation analyzer (Packard). Nonspecific uptake of 2-deoxy-[^3H] glucose was determined by the addition of cytochalasin B (50 μM) 30 minutes prior to the addition of radioactive material.\nGlucose Uptake: The ability of the newly designed compounds GSC-4 and GSC-21 to promote glucose uptake was tested in mouse primary adipocytes as described hereinabove. The relative [^3H] 2-deoxy glucose incorporation observed in non-treated adipocytes was normalized to 1 unit and the values obtained for [^3H] 2-deoxy glucose in adipocytes treated with GSC-4 or GSC-21 are presented as fold activation over cells treated with the peptide control, and are the mean of 6 independent experiments±SEM, where each point was assayed in triplicate."}, "[3]": {"target": "T1, recombinant rabbit GSK-3β", "assay": "In vitro GSK-3 inhibition assay with p9CREB peptide substrate", "type": "biochemical", "protocol": "as §1\nIn still an additional assay, the GSK-3 inhibition activity of GSC-1, GSC-2, GSC-3, GSC-4, GSC-5, GSC-6, and GSC-7 was tested. The ability of GSK-3 to phosphorylate p9CREB peptide substrate was measured in the presence of indicated concentrations of these compounds. The results, presented in FIGS. 7a and 7b, represent the percentage of GSK-3 activity as compared with a control incubation without inhibitors and are mean of 2 independent experiments±SEM, where each point was assayed in triplicate.\nThe kinetic nature of the inhibitors was studied by measuring the initial velocity as a function of the substrate concentration at several inhibitor concentrations. Lineweaver-Burk plots of the GSK-3 inhibition by these inhibitors confirmed the assumption that these are substrate-competitive inhibitors (data not shown). FIG. 8 presents the Lineweaver-Burk plot of the GSK-3 inhibition by gsc-7, as an exemplary inhibitor, represented by phosphate incorporation into p9CREB peptide substrate (CPM). […] Each point is a mean of duplicated sample.\nThe ability of GSK-3 to phosphorylate p9CREB peptide substrate was measured in the presence of indicated concentrations of MP molecules, using the protocol described hereinabove in Example 3. The results, presented in FIG. 19, represent the percentage of GSK-3 activity in control incubation in which inhibitors were omitted. Results are mean of 2 independent experiments±SEM, where each point was assayed in duplicate."}, "[4]": {"target": "CDK-2 (Homo sapiens, UniProt P24941)", "assay": "CDK-2 kinase activity with histone H1 substrate (selectivity)", "type": "biochemical", "conditions": "final concentration of 2 mM, FIG. 9", "protocol": "The effect of GSC-4, GSC-5 and GSC-7 (100 and 200 μM) on other protein kinases was tested by incubating CDK-2 (1 unit) with a reaction mixture similar to that described hereinabove and containing histone H1 substrate (5 μg). The reactions were boiled with SDS sample buffer, separated on gel electrophoresis and autoradiographed.\nThe selectivity of the novel compounds towards GSK-3 was measured by evaluating the inhibition of CDK-2, a kinase closely related to GSK-3. Thus, CDK-2 activity was assayed in the presence of ^32P[γ-ATP] and histone H1 as a substrate. GSC-4, GSC-5 and GSC-7 were added at a final concentration of 2 mM."}, "[5]": {"tested_on": "glycogen synthase", "assay": "Activation of glycogen synthase in C2C12 cells", "type": "cell-based", "conditions": "2.5 hours, FIG. 10", "protocol": "Activation of glycogen synthase by GSK-3 inhibitors: Activation of glycogen synthase can serve as a good marker for inhibition of GSK-3. […] Thus, activation of glycogen synthase by GSC-5 and GSC-7 was tested in C2C12 myotubes. C2C12 cells were treated with GSC-5 and GSC-7 for 2.5 hours at indicated concentrations and lysate supernatants were thereafter assayed for glycogen synthase activity. The activity of glycogen synthase in cells treated with vehicle DMSO (0.1% DMSO) was normalized to 1 unit and the values for glycogen synthase activity observed in cells treated with GSK-3 inhibitors are presented as fold stimulation over the cells treated with vehicle […].\nActivation of glycogen synthase by GSK-3 inhibitors: Activation of glycogen synthase activity in C2C12 cells treated with GSC-5 and GSC-7 was assayed as described hereinabove. The activity of glycogen synthase in cells treated with vehicle DMSO (0.1% DMSO) was normalized to 1 unit and the values for glycogen synthase activity observed in cells treated with GSK-3 (GS4 (hollow circles) GS6 (filled circles) are presented as fold stimulation over the cells treated with vehicle 0.1% HCL."}, "[6]": {"target": "GSK-3 (Oryctolagus cuniculus, UniProt A0A5F9DUX8)", "sequence (A0A5F9DUX8 entry or part of it)": "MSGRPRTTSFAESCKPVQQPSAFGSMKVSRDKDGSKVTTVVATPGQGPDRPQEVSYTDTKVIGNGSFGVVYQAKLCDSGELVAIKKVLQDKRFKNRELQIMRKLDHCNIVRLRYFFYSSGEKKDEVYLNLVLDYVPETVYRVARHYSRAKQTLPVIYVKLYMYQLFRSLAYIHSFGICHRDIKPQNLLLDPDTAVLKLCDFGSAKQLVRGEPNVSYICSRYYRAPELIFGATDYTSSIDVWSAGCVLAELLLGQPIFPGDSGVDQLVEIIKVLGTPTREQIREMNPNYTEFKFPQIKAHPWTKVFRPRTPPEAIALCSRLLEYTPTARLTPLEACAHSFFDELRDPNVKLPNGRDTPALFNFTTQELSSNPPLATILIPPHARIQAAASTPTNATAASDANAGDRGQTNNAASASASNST", "assay": "Time course analyses of peptide phosphorylation by GSK-3", "type": "biochemical"}, "[7]": {"conditions": "MP molecules, p9CREB peptide substrate, FIG. 19"}},
  "note": "Counter-ions that a name gives are not always drawn. Like-named read-outs stand apart in the source and are kept apart here.",
  "data": [
    {"compound": "Cc1ccc(COP(=O)(O)O)cc1", "note": "[GSC-2, p-methyl benzyl phosphate]", "values": [
      {"measurement": "GSK-3 inhibition activity", "setting": "[1]", "value": "exerted an inhibition activity"}
    ]},
    {"compound": "N=C(N)Nc1cccc(COP(=O)(O)O)c1", "note": "[GSC-4, 3-guanidinobenzyl phosphate]", "values": [
      {"measurement": "Glucose uptake ([3H] 2-deoxy glucose incorporation), fold activation", "setting": "[2]; 10 μM", "value": "~2", "unit": "fold"},
      {"measurement": "IC50", "setting": "[3]; p9CREB peptide substrate, FIGS. 7a-b, most active compounds", "value": 500, "unit": "µM"},
      {"measurement": "GSK-3 inhibition activity (ranking)", "setting": "[1]; PGS-1 peptide substrate, FIG. 6", "value": "most active compounds"},
      {"measurement": "Inhibition of histone H1 phosphorylation by CDK-2", "setting": "[4]", "value": "no inhibition of histone H1 phosphorylation was observed"}
    ]},
    {"compound": "N=C(N)NCc1cccc(COP(=O)(O)O)c1", "note": "[GSC-5, 3-(guanidinomethy)benzyl phosphate]", "values": [
      {"measurement": "Glycogen synthase activity, fold stimulation over vehicle", "setting": "[5]", "value": 1.5, "unit": "fold"},
      {"measurement": "Inhibition of histone H1 phosphorylation by CDK-2", "setting": "[4]", "value": "no inhibition of histone H1 phosphorylation was observed"}
    ]},
    {"compound": "N=C(N)Nc1cc(COP(=O)(O)O)cc(NC(=N)N)c1", "note": "[GSC-7, 3,5-bisguanidino benzyl phosphate]", "values": [
      {"measurement": "IC50", "setting": "[3]", "value": 500, "unit": "µM"},
      {"measurement": "Kinetic nature of inhibition (Lineweaver-Burk plot)", "setting": "[3]; phosphate incorporation into p9CREB, FIG. 8", "value": "competitive specific inhibitor"},
      {"measurement": "Glycogen synthase activity, fold stimulation over vehicle", "setting": "[5]", "value": 1.8, "unit": "fold"},
      {"measurement": "Inhibition of histone H1 phosphorylation by CDK-2", "setting": "[4]", "value": "no inhibition of histone H1 phosphorylation was observed"}
    ]},
    {"compound": "NCCc1cc(CCN)cc(COP(=O)(O)O)c1", "note": "[GSC-21, 3,5-bis(2-aminoethyl)benzyl phosphate]", "values": [
      {"measurement": "Glucose uptake ([3H] 2-deoxy glucose incorporation), fold activation", "setting": "[2]; 0.5 μM", "value": 1.7, "unit": "fold"},
      {"measurement": "Glucose uptake ([3H] 2-deoxy glucose incorporation), fold activation", "setting": "[2]; 5 μM", "value": 2.5, "unit": "fold"}
    ]},
    {"compound": "N=C(N)Nc1cccc(-c2cn(-c3cccc(COP(=O)(O)O)c3)nn2)c1", "note": "[MP-1, 3-(4-(3-guanidinophenyl)-1,2,3-triazol-1-yl)benzyl phosphoric acid hydrochloride]", "values": [
      {"measurement": "IC50", "setting": "[3]; [7]", "value": "~1000", "unit": "µM"}
    ]},
    {"compound": "N=C(N)Nc1ccc(-c2cn(-c3cccc(COP(=O)(O)O)c3)nn2)cc1", "note": "[MP-4, 3-(4-(4-guanidinophenyl)-1,2,3-triazol-1-yl)benzyl phosphoric acid hydrochloride]", "values": [
      {"measurement": "IC50", "setting": "[3]; [7]", "value": "~1000", "unit": "µM"}
    ]},
    {"compound": "O=P(O)(O)Oc1ccccc1", "note": "[phenyl phosphate, reference compound]", "values": [
      {"measurement": "GSK-3 inhibition activity", "setting": "[1]", "value": "exerted an inhibition activity"}
    ]},
    {"compound": "Cc1ncc(COP(=O)(O)O)c(C=O)c1O", "note": "[pyridoxal phosphate, reference compound]", "values": [
      {"measurement": "GSK-3 inhibition activity", "setting": "[1]", "value": "exerted an inhibition activity"}
    ]},
    {"compound": "ILSRRPEYR [9ECREB]", "values": [
      {"measurement": "Phosphorylation of peptide by GSK-3 (substrate)", "setting": "[6]", "value": "completely failed to be phosphorylated"}
    ]},
    {"compound": "ILSRRPSYR [9CREB]", "values": [
      {"measurement": "Phosphorylation of peptide by GSK-3 (substrate)", "setting": "[6]", "value": "completely failed to be phosphorylated"}
    ]}
  ]
}
